Assay results taken from patent US5808139A (Ligand Pharmaceuticals Incorporated, priority 1994, dated 1998).
“Also recorded” adds a separate entry of the source.

Columns and labels:
[1] = Wall et al., J. Nat. Prod. 1989; cited from earlier work
[2] = biological target: T1, human progesterone receptor (Homo sapiens, UniProt P06401); test: Co-transfection (cis-trans) assay in CV-1 cells, agonist and antagonist mode; format: cell-based; set-up: expressed in transfected cells; host or cells: CV-1 cells (calcium phosphate transfection), whole cell extract; settings: antagonist mode with 10^-8 M progesterone
T1 sequence (P06401 1-933): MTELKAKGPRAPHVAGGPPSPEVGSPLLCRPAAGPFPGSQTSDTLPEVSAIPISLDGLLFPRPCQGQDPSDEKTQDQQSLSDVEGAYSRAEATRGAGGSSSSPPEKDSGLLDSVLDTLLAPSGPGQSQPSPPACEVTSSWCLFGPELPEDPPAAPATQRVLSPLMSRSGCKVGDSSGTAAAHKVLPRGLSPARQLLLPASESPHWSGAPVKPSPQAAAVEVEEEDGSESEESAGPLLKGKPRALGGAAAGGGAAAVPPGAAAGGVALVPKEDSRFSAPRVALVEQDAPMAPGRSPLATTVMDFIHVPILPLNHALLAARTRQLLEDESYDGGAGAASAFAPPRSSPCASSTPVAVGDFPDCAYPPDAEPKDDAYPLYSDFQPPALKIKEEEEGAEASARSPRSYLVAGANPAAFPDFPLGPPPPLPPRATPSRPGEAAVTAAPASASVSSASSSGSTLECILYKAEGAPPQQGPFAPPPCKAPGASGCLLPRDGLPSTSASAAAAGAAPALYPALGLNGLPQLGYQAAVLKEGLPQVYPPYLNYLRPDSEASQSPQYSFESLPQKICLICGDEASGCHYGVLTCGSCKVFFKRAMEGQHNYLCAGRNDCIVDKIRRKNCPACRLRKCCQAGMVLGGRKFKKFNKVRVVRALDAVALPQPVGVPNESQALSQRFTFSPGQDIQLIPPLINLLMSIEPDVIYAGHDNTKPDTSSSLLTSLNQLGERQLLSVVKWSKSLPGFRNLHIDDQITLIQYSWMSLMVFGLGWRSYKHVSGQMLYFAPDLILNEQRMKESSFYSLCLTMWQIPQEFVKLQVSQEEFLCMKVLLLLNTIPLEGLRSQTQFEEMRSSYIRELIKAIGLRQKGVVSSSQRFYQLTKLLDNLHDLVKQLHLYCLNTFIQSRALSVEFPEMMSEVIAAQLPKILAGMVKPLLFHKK
Excerpt: This assay is described in further detail in U.S. Pat. Nos. 4,981,784 and 5,071,773, which are incorporated herein by reference. The co-transfection assay provides a method for identifying functional ligands (either agonists which mimic, or antagonists which inhibit, the effect of hormones) for ligand-responsive receptor proteins.
The co-transfection assay provides a mechanism to evaluate ability of a compound to function as an agonist or antagonist of the activity modulated by an intracellular receptor. The co-transfection assay mimics an in vivo system in the laboratory. In the co-transfection assay, a cloned gene for an intracellular receptor is introduced by transfection (a procedure to induce cells to take up foreign genes) into a background cell substantially devoid of endogenous intracellular receptors. This introduced gene directs the recipient cells to make the intracellular receptor protein. A second gene is also introduced (co-transfected) into the same cells in conjunction with the intracellular receptor gene. This second gene functions as a reporter for the transcription-modulating activity of the target intracellular receptor. The reporter acts as a surrogate for the products normally expressed by a gene under control of the target receptor and its natural hormone.
A preferred reporter gene is one which expresses the firefly enzyme luciferase. The co-transfection assay can detect small molecule agonists or antagonists of target intracellular receptors. Exposing the cells to an agonist ligand increases reporter activity in the transfected cells that can be conveniently measured, reflecting ligand-dependent, intracellular receptor-mediated increases in reporter transcription. To detect antagonists, the co-transfection assay is carried out in the presence of a constant concentration of an agonist known to induce a defined reporter signal. Increasing concentrations of a test antagonist will decrease the reporter signal. The co-transfection assay is therefore useful to detect both agonists and antagonists of specific intracellular receptors. It determines not only whether a compound interacts with a particular intracellular receptor, but also whether this interaction mimics (agonizes) or blocks (antagonizes) the effects of the natural regulatory molecules on target gene expression.
Co-transfected cells are exposed to a medium to which is added the potential ligand that is being evaluated. If the candidate ligand diffuses into the cell and binds to the receptor and the resulting complex functions as an agonist, it binds to the co-transfected reporter gene and initiates transcription. When that gene is one that expresses, for example, luciferase, luciferase is produced which catalyzes a light-emitting reaction with its substrate luciferin. Thus, after cell lysis and the introduction of luciferin, the amount of light produced relative to the concentration of candidate ligand used in the assay provides a measure of the potency and efficacy of the compound tested. Antagonist activity is evaluated by adding the candidate ligand and a known agonist to the co-transfected cells.
The receptor cDNA was introduced in a mammalian expression vector under the control of the Rous Sarcoma virus LTR. […] A reporter vector was also transfected, containing a firefly luciferase gene under the control of the hormone-responsive promoter. […] The level of luciferase activity was then measured in cell extracts. Light emission is directly proportional to the effectiveness of the hormone-receptor complex in activating gene expression.
A total of three replicates per concentration point were tested for each compound, and the EC50 was calculated for each positive response. Both agonist and antagonist activity for each test compound was determined in parallel.

T47D cells = test: Alkaline phosphatase activity in T47D cells (induction and its inhibition); format: cell-based, human; settings: ligand alone; three days
Excerpt: The functional activities of the cyclocymopol analogues in the human breast cell line, T47D, were also investigated. T47D cells have proven to be a particularly useful model to investigate the molecular actions of sex steroids because they contain endogenous functional receptors for, and respond to, progestins, and their respective antagonists. Moreover, these cells contain exceptionally high titers of progesterone receptors and are exquisitely sensitive to the actions of progestins in a manner quite similar to their actions in normal and neoplastic mammary epithelial cells. In T47D cells, progestins induce de novo synthesis of a plasma-associated alkaline phosphatase, which has been reported to be similar, if not identical, to the alkaline phosphatase present in the normal breast and human milk. These tests were conducted according to the following illustrative example. […] For routine induction of alkaline phosphatase, cells were treated for three days with two media changes and harvested as described below. […] Nuclei were sedimented at 2500 rpm, and the supernatant was saved as cytosol. The protein content of the cytosol was assayed by the method of Bradford. Alkaline phosphatase activity was determined by incubating one volume of cell extract with three volumes of 1 mg/ml p-nitrophenol phosphate prepared in DEAM (1M diethanolamine, pH=9, containing 2 mM magnesium chloride) at room temperature for 20 min. At the end of the incubation time, the reaction was stopped with an equal volume of 1N NaOH. Ten standards of p-nitrophenol were prepared in DEAM buffer and absorbance was read at 405 nm. Alkaline phosphatase activity is expressed as pmol p-nitrophenol formed/min/mg protein.

[3] = biological target: T1, human progesterone receptor; test: Progesterone receptor binding (displacement of 3H-progesterone, whole cell extract of transfected CV-1 cells); set-up: expressed in transfected cells; host or cells: CV-1 cells (calcium phosphate transfection), whole cell extract
[4] = tested on: human progesterone receptor altered at the Tau-1 location; test: Co-transfection assay in CV-1 cells, progesterone receptor altered at Tau-1, antagonist activity; format: cell-based
Procedure, shortened: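 CV-1 cells co-transfected with RSV-LTR-driven human PR (altered at Tau-1) and a hormone-responsive luciferase reporter; antagonism measured against a fixed agonist concentration. Luciferase in cell extracts read, triplicate points, potency from concentration-response; […].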

| Compound | Antimutagen activity [1] | Progesterone receptor agonist/antagonist activity [2] | Agonist activity, alkaline phosphatase induction (T47D cells) | Kd [3] [nM] | Efficacy (% maximal response relative to RU-486), CV-1 cells ([4]; antagonist activity, relative to RU-486) [%] | IC50 ([4]; concentration required to reduce the maximal response by 50%, read-out: Potency (IC50), CV-1 cells) [nM] |
| --- | --- | --- | --- | --- | --- | --- |
| CC1(C)[C@@H](Br)CC[C@@]2(C)Oc3cc(Br)c(O)cc3C[C@@H]12 [cymobarbatol] | highly active antimutagens |  |  |  |  |  |
| 4-isocymobarbatol | highly active antimutagens |  |  |  |  |  |
| C=C1CC[C@@H](Br)C(C)(C)[C@H]1Cc1cc(OC)c(Br)cc1O [SO-54, (3S)-cyclocymopol monomethyl ether] |  | progesterone receptor agonist activity | functional agonists; also recorded: increased the activity of intracellular alkaline phosphatase in a concentration-dependent manner | 325 | < 20 | > 10000 |
